Results from patent US20260250318A1, “COMPOSITIONS AND METHODS FOR CROSSING THE BLOOD BRAIN BARRIER” (VOYAGER THERAPEUTICS, INC., priority 2022, published 2026).

Tests used:
Conditions in all cases: synthetic library passage 3, intravenous, relative to wild-type AAV9
[1] = system: brain; test: NGS fold enrichment of synthetic library (passage 3) in BALB/c mice, first cross-species screen; format: in vivo
Procedure, shortened: (§1)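 Synthetic capsid library (passage 3) was given intravenously […] to NHPs aged 2-4 years and to BALB/c and C57Bl/6 mice (n=3 each, 6-8 weeks). After about 28 days in vivo, tissue RNA was RT-PCR amplified and NGS-sequenced; values are fold enrichment per variant relative to wild-type AAV9.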

[2] = system: brain; test: NGS fold enrichment of synthetic library (passage 3) in C57Bl/6 mice, first cross-species screen; format: in vivo
Procedure, shortened: as §1

[3] = system: brain, spinal cord, and DRG of the NHPs; test: NGS fold enrichment of synthetic library (passage 3) in NHPs, first cross-species screen; format: in vivo, cynomolgus macaques (Macaca fascicularis)
Procedure, shortened: as §1

[4] = RNA from brain of BALB/c mice, NGS
[5] = RNA from brain of C57Bl/6 mice, NGS
[6] = RNA from spinal cord of NHPs, NGS

Row | Sequence | Fold enrichment over AAV9 in the brain of Mice (BALB/c) ([1]; RNA NGS, brain of BALB/c mice) | Fold enrichment over AAV9 in the brain of Mice (C57Bl/6) ([2]; RNA NGS, brain of C57Bl/6 mice) | Fold enrichment over AAV9 in the brain of NHPs ([3]; RNA NGS, brain of NHPs) | Fold enrichment over AAV9 in the spinal cord of NHPs ([3]; RNA NGS, spinal cord of NHPs) | Fold enrichment over AAV9 in the brain of Mice (BALB/c) [1, 4] | Fold enrichment over AAV9 in the brain of Mice (C57Bl/6) [2, 5] | Fold enrichment over AAV9 in the brain of NHPs ([3]; RNA from brain of NHPs, NGS) | Fold enrichment over AAV9 in the spinal cord of NHPs [3, 6]
1 | GSGMPASRLQNQQT | 0.372 fold | 0.790 fold | 1.117 fold | 1.689 fold |  |  |  | 
2 | GSGMPIRNVQNQQT | 0.631 fold | 0.684 fold | 1.584 fold | 0.138 fold |  |  |  | 
3 | GSGMPQSHIQNQQT | 0.334 fold | 0.514 fold | 3.289 fold | 11.609 fold |  |  |  | 
4 | GSGMPVILGQNQQT | 0.287 fold | 0.840 fold | 2.005 fold | 0.150 fold |  |  |  | 
5 | GSGMRQAGVQNQQT | 0.775 fold | 0.736 fold | 1.032 fold | 0.811 fold |  |  |  | 
6 | GSGMSPSTLQNQQT | 0.153 fold | 0.318 fold | 2.216 fold | 3.053 fold |  |  |  | 
7 | GSGNMHASRQNQQT |  |  |  |  | 0.687 fold | 0.782 fold | 1.238 fold | 3.878 fold
8 | GSGNPHVRNQNQQT | 0.755 fold | 0.732 fold | 1.112 fold | 0.873 fold |  |  |  | 
9 | GSGNPVSHLQNQQT | 0.310 fold | 0.583 fold | 1.121 fold | 1.037 fold |  |  |  | 
10 | GSGNYRDHEQNQQT |  |  |  |  | 0.222 fold | 0.287 fold | 1.193 fold | 7.389 fold
11 | GSGPILGQLQNQQT | 0.123 fold | 0.470 fold | 2.097 fold | 2.058 fold |  |  |  | 
12 | GSGPQSHTGQNQQT | 0.447 fold | 0.958 fold | 1.757 fold | 9.490 fold |  |  |  | 
13 | GSGPSISHGQNQQT | 0.665 fold | 0.614 fold | 1.000 fold | 0.000 fold |  |  |  | 
14 | GSGPWSAGLQNQQT | 0.539 fold | 0.700 fold | 1.067 fold | 0.947 fold |  |  |  | 
15 | GSGQAAKSSQNQQT | 0.737 fold | 0.778 fold | 1.036 fold | 0.681 fold |  |  |  | 
16 | GSGQALLSTGNQQT |  |  |  |  | 0.370 fold | 0.536 fold | 1.377 fold | 0.847 fold
17 | GSGQALSSSGNQQT |  |  |  |  | 0.931 fold | 0.894 fold | 1.351 fold | 6.860 fold
